Data reported in patent US20030013660A1, “Dioxolane analogs for improved inter-cellular delivery” (Shire BioChem Inc., priority 2000, published 2003).

Key:
Assay in all cases: 3H-TdR incorporation at 72 hr (24 hr drug exposure, wash, 48 hr)
[1] = tested on: CCRF-CEM; assay type: cell-based; details: Homo sapiens, CCRF-CEM, read-out: IC50 in μM (3H-TdR incorporation at 72 hr) CCRF-CEM 24 h, CCRF-CEM T-cell Leukemia, 72 hr assay
Protocol: (§1) Exposition of 24 hr to drug, wash, incubated for another 48 hr (total of 72 hr assay)
(§2) (3H-Thymidine Incorporation Assay)

[2] = tested on: CEM/dCK-; assay type: cell-based; details: for IC50: Homo sapiens, CCRF-CEM, read-out: IC50 in μM (3H-TdR incorporation at 72 hr) CEM/dCK- 24 h, CCRF-CEM deoxycytidine kinase-deficient, 24 h drug exposure, 72 hr assay; for Factor* (Resistance Factor = Ratio of dCK- on Wild-type CCRF-CEM): ratio of IC50 CEM/dCK- to IC50 CCRF-CEM
Protocol: as §1, §2

[3] = tested on: MCF-7; assay type: cell-based, Human; details: Homo sapiens, MCF7, read-out: IC50 in μM (3H-TdR incorporation at 72 hr) MCF-7 24 h, MCF-7 Human Breast Carcinoma, 72 hr assay
Protocol: as §1, §2

[4] = tested on: SF-268; assay type: cell-based, Human; details: Homo sapiens, SF-268, read-out: IC50 in μM (3H-TdR incorporation at 72 hr) SF-268 24 h, SF-268 Human Central Nervous System Tumor; 24 h drug exposure, 72 hr assay
Protocol: as §1, §2

[5] = tested on: H-460; assay type: cell-based, Human; details: Homo sapiens, NCI-H460, read-out: IC50 in μM (3H-TdR incorporation at 72 hr) H-460 24 h, H-460 Human Lung Carcinoma, 72 hr assay
Protocol: as §1, §2

CC(C)Cc1ccc([C@H](C)C(=O)OC[C@H]2OC[C@@H](n3ccc(N)nc3=O)O2)cc1 [Compound 243, 2-(4-ISOBUTYL-PHENYL)- PROPIONIC ACID 4-(4- AMINO-2-OXO-2H- PYRIMIDIN-1-YL)- [1,3]DIOXOLAN-2-YL METHYL ESTER]
IC50 [1]: 0.027 µM
IC50 [2]: 72 µM
Factor* (Resistance Factor = Ratio of dCK- on Wild-type CCRF-CEM) [2]: 2,667
IC50 [3]: 0.0005 µM
IC50 [4]: 0.32 µM
IC50 [5]: 0.0011 µM

CN(C)CCCOC(=O)OC[C@H]1OC[C@@H](n2ccc(N)nc2=O)O1.O=C(O)C(F)(F)F [Compound 164, CARBONIC ACID 4-(4- AMINO-2-OXO-2H- PYRIMIDIN-1-YL)- [1,3]DIOXOLAN-2- YLMETHYL ESTER 3- DIMETHYLAMINO-PROPYL ESTER TRIFLUORO-ACETIC ACID SALT]
IC50 [1]: 0.06 µM
IC50 [2]: > 100 µM
Factor* (Resistance Factor = Ratio of dCK- on Wild-type CCRF-CEM) [2]: 1667
IC50 [3]: 0.14 µM
IC50 [4]: 0.28 µM
IC50 [5]: 0.13 µM

CC(C)(C)C(CCCCCCc1ccccc1)C(=O)OC[C@H]1OC[C@@H](n2ccc(N)nc2=O)O1 (stereo partly drawn) [Compound 256, 2-tert-Butyl-8-phenyl-octanoic acid 4-(4-amino-2-oxo-2H-pyrimidin-1-yl)-[1,3]dioxolan-2-yl methyl ester]
IC50 [1]: 5.3 µM
IC50 [2]: 20 µM
Factor* (Resistance Factor = Ratio of dCK- on Wild-type CCRF-CEM) [2]: 4
IC50 [3]: 5.1 µM
IC50 [4]: 14 µM
IC50 [5]: 4.6 µM

C#CCOC[C@H]1OC[C@@H](n2ccc(N)nc2=O)O1 [Compound 173, (S,S)-4-AMINO-1-(2′- PROP-2′-YNYLOXYMETHYL- [1,3]DIOXOLAN-4′-YL)- 1H-PYRIMIDIN-2-ONE]
IC50 [1]: 2.6 µM
IC50 [2]: > 100 µM
Factor* (Resistance Factor = Ratio of dCK- on Wild-type CCRF-CEM) [2]: >38
IC50 [3]: 17 µM
IC50 [4]: 2 µM
IC50 [5]: 6.1 µM

Nc1ccn([C@@H]2CO[C@H](COC3(c4ccccc4)OC4OC(COC(=O)c5ccccc5)C(OC(=O)c5ccccc5)C(OC(=O)c5ccccc5)C4O3)O2)c(=O)n1 (stereo partly drawn) [Compound 184, 3,4,6-TRI-O-BENZOYL- 1,2-O-(1-(4-AMINO-2- OXO-2H-PYRIMIDIN-1-YL)- [1,3]DIOXOLAN-2- YLMETHYLOXY)-BENZYL)- □^˜D-GLUCOPYRANOSe]
IC50 [1]: 0.81 µM
IC50 [2]: 40 µM
Factor* (Resistance Factor = Ratio of dCK- on Wild-type CCRF-CEM) [2]: 49
IC50 [3]: 0.92 µM
IC50 [4]: 1.1 µM
IC50 [5]: 0.94 µM

COC(OC)(OC)OC[C@H]1OC[C@@H](n2ccc(N)nc2=O)O1 [Compound 177, 4-AMINO-1-(2- TRIMETHOXYMETHOXYMETHYL -[1,3]DIOXOLAN-4-YL)- 1H-PYRIMIDIN-2-ONE]
IC50 [1]: 0.095 µM
IC50 [2]: > 100 µM
Factor* (Resistance Factor = Ratio of dCK- on Wild-type CCRF-CEM) [2]: >1052
IC50 [3]: 0.22 µM
IC50 [4]: 0.92 µM
IC50 [5]: 0.19 µM

CCOC(=O)/C=C/OC[C@H]1OC[C@@H](n2ccc(N)nc2=O)O1 [Compound 201, 3-[4-(4-AMINO-2-OXO-2H- PYRIMIDIN-1-YL)- [1,3]DIOXOLAN-2-YL METHOXY]-ACRYLIC ACID ETHYL ESTER]
IC50 [1]: 14 µM
IC50 [2]: > 100 µM
Factor* (Resistance Factor = Ratio of dCK- on Wild-type CCRF-CEM) [2]: >7
IC50 [3]: 18 µM
IC50 [4]: 7.3 µM
IC50 [5]: 17 µM

O=C(Nc1ccn([C@@H]2CO[C@H](CO)O2)c(=O)n1)C(c1ccccc1)c1ccccc1 [Compound 241, N-[1-(2-HYDROXYMETHYL- [1,3]DIOXOLAN-4-YL)-2- OXO-1,2-DIHYDRO- PYRIMIDIN-4-YL]-2,2- DIPHENYL-ACETAMIDE]
IC50 [1]: 1.4 µM
IC50 [2]: ≥ 100 µM
Factor* (Resistance Factor = Ratio of dCK- on Wild-type CCRF-CEM) [2]: ≧74
IC50 [3]: 0.17 µM
IC50 [4]: 14 µM
IC50 [5]: 0.047 µM

CC(C)(CCCCCCc1ccccc1)C(=O)Nc1ccn([C@@H]2CO[C@H](CO)O2)c(=O)n1 [Compound 227, 2,2-DIMETHYL-8-PHENYL- OCTANOIC ACID [1-(2- HYDROXYMETHYL- [1,3]DIOXOLAN-4-YL)-2- OXO-1,2-DIHYDRO- PYRIMIDIN-4-YL]-AMIDE]
IC50 [1]: 0.043 µM
IC50 [2]: 22 µM
Factor* (Resistance Factor = Ratio of dCK- on Wild-type CCRF-CEM) [2]: 512
IC50 [3]: 0.012 µM
IC50 [4]: 3 µM
IC50 [5]: 0.84 µM

COc1ccc(C(OC)(OC)OC[C@H]2OC[C@@H](n3ccc(N)nc3=O)O2)cc1 [Compound 195, 4-AMINO-1-{2- [DIMETHOXY-(4-METHOXY- PHENYL)-METHOXYMETHYL]- [1,3]DIOXOLAN-4-YL}- 1#H!-PYRIMIDIN-2-ONE]
IC50 [1]: 0.064 µM
IC50 [2]: > 100 µM
Factor* (Resistance Factor = Ratio of dCK- on Wild-type CCRF-CEM) [2]: >1563
IC50 [3]: 1.9 µM
IC50 [4]: 1.5 µM
IC50 [5]: 1.1 µM
